This note sets out measurements from patent US5656603A (Loyola University of Chicago, priority 1995, dated 1997).

Series [1] relates to [3H]-bradykinin degradation in the isolated perfused rat lung. As to the kind of experiment: [3H]-bradykinin degradation in the isolated perfused rat lung (HPLC of perfusate). On the procedure:
Using the procedure described herein, under Experimental Procedures it was determined that aminopeptidase P contributed to Bk degradation in the mammalian lung. In that procedure, [^3 H]-Bk (labelled in Pro^2 and Pro^3) was perfused through the isolated lung in the presence or absence of various peptidase inhibitors. The perfusate was then analyzed for radiolabelled products by HPLC. […] Most of the radioactivity (an average of 79%) was in the form of [^3 H]-Pro-Pro [Bk(2-3)] with the remainder being [^3 H]-Bk(1-5). It was hypothesized that pulmonary vascular aminopeptidase P was cleaving the Arg'-Pro^2 bond followed by rapid removal of Pro-Pro by dipeptidylpeptidase IV (DPP IV) (12). Simultaneously, angiotensin converting enzyme (ACE) was sequentially removing Phe-Arg and Ser-Pro from the C-terminus (13). […] However, most of the radioactivity remained in the Pro-Pro peak indicating substantial cleavage of Bk at the N-terminal end.
Perfusion of the Isolated Rat Lung--Male Sprague Dawley rats, weighing 300-500 grams, were anesthetized with sodium pentobarbital (50-75 mg/kg) given by intraperitoneal injection. The trachea was cannulated and the lungs ventilated with air at 70 cycles per minute (Harvard Small Animal Ventilator) at a pressure of 70 mm H2 O. The heart and lungs were exposed via midsternal incision and 1000 units of heparin were administered intracardially. Polyethylene cannulae were secured into the pulmonary artery and the left ventricle. A modified Krebs buffer (118.5 mM NaCl, 4.7 mM KCl, 1.1 mM KH2 PO4, 1.1 mM MgSO4, 2.5 mM CaCl2, 19.6 mM NaHCO3, 5.6 mM dextrose), which was kept in a 50° C. water bath and aerated with 95% O2 -5% CO2 to pH 7.35, was perfused into the pulmonary artery at 35° C. and 2.6 ml/min (LKB Microperplex peristaltic pump). The buffer was circulated through the isolated lung in situ until the effluent was free of blood. The surgical field was maintained at 37° .C with a heat lamp throughout the procedure. Experiments were conducted by introducing [^3 H]-Bk in the presence or absence of test peptidase inhibitors into the pulmonary circulation via the pulmonary artery and then collecting perfusion effluent from the left ventricular cannula. […] The lung was then perfused with 1 μCi [^3 H]-Bk in 1 ml of the inhibitor solution (giving 16 nM Bk) followed by inhibitor solution alone. Effluent was collected in tubes (0.5 min/fraction) containing 150 μl of 2% TFA. For each lung preparation, 5-6 samples were perfused over a period of about one hour. Control perfusions of [^3 H]-Bk alone were always carried out before perfusions of samples containing ramiprilat because of the slow reversibility of inhibition of ACE by this compound. […] The effects of the latter two inhibitors were reversible.
Separation and Identification of Bradykinin Metabolites--The fractions which were collected from each perfusion sample run were counted for radioactivity, and the fraction having the highest radioactive counts was prepared for HPLC by filtration through a Centricon-10 microconcentrator (Amicon). An aliquot of the filtrate containing 25000 dpm (approx. 25 μl) was spiked with a cocktail of unlabelled Bk fragments (3 μl) and then subjected to HPLC using a Waters Radial Compression Separation System with a 5μ NOVA PAK C18 Radial Pak Cartridge. The column was developed at a flow rate of 1 ml/min with a 60 min linear gradient from 100% Solvent A (0.1% TFA in water) to 75% Solvent A: 25% Solvent B (0.08% TFA in acetonitrile) using a Spectra Physics 8700XR Solvent Delivery System. The column effluent was simultaneously monitored for absorbance at 206 nm (LKB Uvicord S) and for radioactivity (Radiomatic Flo-One HS Radioactive Flow Detector using Ultima-Flo M scintillation fluid from Packard, Meriden, Conn.). […] Radioactive peaks were identified by comparison of the retention times to those of the unlabelled standards. […]

Series [2] addresses T1, purified bovine lung membrane-bound aminopeptidase P (Bos taurus, UniProt E1B735).
T1 construct: from tissue; host or cells: bovine lung
T1 sequence (E1B735 22-673): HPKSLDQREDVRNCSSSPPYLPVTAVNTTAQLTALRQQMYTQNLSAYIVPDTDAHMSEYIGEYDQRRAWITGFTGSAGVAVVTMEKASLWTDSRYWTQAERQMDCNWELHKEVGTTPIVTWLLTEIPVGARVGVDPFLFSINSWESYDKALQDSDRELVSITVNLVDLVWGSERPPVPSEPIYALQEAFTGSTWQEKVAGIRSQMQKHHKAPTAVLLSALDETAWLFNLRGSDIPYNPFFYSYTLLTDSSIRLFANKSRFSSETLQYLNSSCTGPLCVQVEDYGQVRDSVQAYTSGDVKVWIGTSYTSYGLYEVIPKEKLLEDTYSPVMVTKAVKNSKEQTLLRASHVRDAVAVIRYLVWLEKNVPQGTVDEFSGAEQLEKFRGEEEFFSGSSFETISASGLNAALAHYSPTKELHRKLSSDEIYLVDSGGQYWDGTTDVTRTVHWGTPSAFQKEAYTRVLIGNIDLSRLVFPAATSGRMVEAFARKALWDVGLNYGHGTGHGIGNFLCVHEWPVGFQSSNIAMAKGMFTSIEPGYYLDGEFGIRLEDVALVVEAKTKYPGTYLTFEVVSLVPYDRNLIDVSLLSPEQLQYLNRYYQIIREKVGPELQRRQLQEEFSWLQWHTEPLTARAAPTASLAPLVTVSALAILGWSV
As to the kind of experiment: Aminopeptidase P inhibition, release of arginine from Arg-Pro-Pro (fluorescent assay). It counts as biochemical. Conditions: bovine lung aminopeptidase P; cleavage of 0.5 μM Arg-Pro-Pro in 0.1M Hepes, pH 8.0 at 37° C. On the procedure:
The IC50 of the compound of the present invention in relation to aminopeptidase P was also determined. […] The specificity of the compound of the present invention for other aminopeptidases was similarly determined as described in the Experimental Procedures herein. […] The following enzymes had IC50 values>800 μM: aminopeptidase A, angiotensin converting enzyme, dipeptidyl-peptidase I-like activity, bestatin-sensitive/amastatin-insensitive membrane dipeptidase (29), microsomal dipeptidase, endopeptidase 24.11, endopeptidase 24.15, and prolyl oligopeptidase.
(§1) Enzymes--Membrane-bound aminopeptidase P was purified to homogeneity from bovine lung (14) and from rat lung. Partially purified membrane-bound aminopeptidase P from human lung was obtained by treatment of lung microsomes with phosphatidylinositol-specific phospholipase C (B. thuringiensis) (ICN, Costa Mesa, Calif.) followed by centrifugation as described previously (14). Membrane dipeptidase was purified from rat lung microsomes (manuscript in preparation). Recombinant E. coli aminopeptidase P (22) and purified lamb kidney prolyl oligopeptidase (23) were generally supplied by Dr. Tadashi Yoshimoto (Nagasaki University). Purified porcine kidney prolidase and purified porcine kidney aminopeptidase M was obtained from Sigma (St. Louis, Mo.).
(§2) Enzyme Kinetics--Aminopeptidase P activity was determined by measuring the release of arginine from Arg-Pro-Pro by a fluorescent assay described previously (14). […] Each mixture was run in duplicate. Aliquots were removed from each incubation mixture at various times and assayed for the amount of arginine present to determine the reaction velocity. In general, reaction velocities were calculated from data representing less than 20% cleavage of substrate. Ki and Ki ' (=αKi) were determined from plots of 1/v versus concentration of inhibitor "i" (26) and S/v versus concentration of inhibitor "i" (27), respectively. These parameters were also determined from the slope replot and 1/v-intercept replot, respectively, of the 1/v versus 1/S plot (28). See e.g., FIG. 1B. The values from the two treatments of the data were averaged for each experiment. Experiments for each enzyme preparation were performed twice and the results averaged.

Series [3] addresses T2, partially purified human lung membrane-bound aminopeptidase P (Homo sapiens, UniProt O43895).
T2 construct: from tissue; host or cells: human lung microsomes
Described as above. It counts as biochemical. Conditions: human lung aminopeptidase P; for IC50: cleavage of 0.5 μM Arg-Pro-Pro in 0.1M Hepes, pH 8.0 at 37° C. On the procedure: The IC50 of the compound of the present invention in relation to aminopeptidase P was also determined. […] The specificity of the compound of the present invention for other aminopeptidases was similarly determined as described in the Experimental Procedures herein.
as §1
as §2, with “See e.g., FIG. 1B.” left out

Series [4] can be described thus: isolated perfused rat lung, modified Krebs buffer. Conditions: Male Sprague Dawley rats, 35° C.
The subject of series [5] is membrane-bound aminopeptidase P. As to the kind of experiment: partially purified human lung membrane-bound aminopeptidase P in 0.1 M Hepes, pH 8.0. Conditions: 39° C.

The term IC50 denotes the concentration at which inhibition is half-maximal. Read a low IC50 as higher potency.

Where “and” joins values, the source holds several entries; their conditions need not be identical. Identical values can stand only once. Entries after “also recorded” stand apart in the source; their conditions may differ.

T2 sequence (O43895 22-674): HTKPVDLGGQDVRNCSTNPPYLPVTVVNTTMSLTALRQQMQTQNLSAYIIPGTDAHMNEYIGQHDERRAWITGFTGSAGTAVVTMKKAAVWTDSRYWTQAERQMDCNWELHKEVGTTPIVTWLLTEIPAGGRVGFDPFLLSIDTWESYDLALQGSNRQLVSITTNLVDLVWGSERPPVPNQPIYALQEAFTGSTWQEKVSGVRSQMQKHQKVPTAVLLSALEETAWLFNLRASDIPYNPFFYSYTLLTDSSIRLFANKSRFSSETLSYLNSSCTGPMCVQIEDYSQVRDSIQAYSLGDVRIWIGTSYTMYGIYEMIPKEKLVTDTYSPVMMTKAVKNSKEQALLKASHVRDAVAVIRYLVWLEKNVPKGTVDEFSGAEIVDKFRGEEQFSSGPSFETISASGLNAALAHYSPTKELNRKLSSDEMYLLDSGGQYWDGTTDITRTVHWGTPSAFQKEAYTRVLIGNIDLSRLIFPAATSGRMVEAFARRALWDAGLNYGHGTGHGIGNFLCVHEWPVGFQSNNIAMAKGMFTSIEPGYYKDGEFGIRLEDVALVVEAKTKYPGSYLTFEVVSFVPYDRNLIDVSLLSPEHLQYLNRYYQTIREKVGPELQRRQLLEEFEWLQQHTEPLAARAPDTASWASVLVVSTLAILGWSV

As to `C[C@H](N[C@@H](CCc1ccccc1)C(=O)O)C(=O)N1[C@H](C(=O)O)C[C@@H]2CCC[C@@H]21` [ramiprilat], the “percentage of radioactivity eluting from the lung as intact [3H]-Bk” value in series [1] (ramiprilat (0.5 μM) alone in the perfusion medium, mean ± SEM, three rats) is 22±6% and 22%. The “fold increase of intact [3H]-Bk eluting from the lung” value in series [1] (ramiprilat alone versus no inhibitor (unmeasurable levels)) was not below 22 fold. As for `CC(C)C[C@H](N)[C@@H](O)C(=O)N1CCC[C@H]1C(=O)N1CCC[C@H]1C(=O)N[C@@H](C)C(N)=O` [(2R,3S), N-[(2R,3S)-3-amino-2-hydroxy-5-methylhexanoyl]-L-prolyl-L-prolyl-L-alaninamide], the IC50 turned out to be 2.1 µM in series [2] and 0.43 µM in series [3].

Regarding [2,3-Prolyl-3,4-^3 H(N)]-bradykinin, in series [4], the cleaved bond entry is “rapid removal of Pro-Pro by dipeptidylpeptidase IV (DPP IV); also recorded: Pro7-Phe8; also recorded: removing Ser-Pro from the C-terminus (after Phe-Arg); also recorded: Arg1-Pro2, major; also recorded: [^3 H]-Pro-Pro arose by DPP IV cleavage of [^3 H]-Bk(2-9)”; the fragment found result was “[^3 H]-Bk(1-5), major; also recorded: [^3 H]-Pro-Pro, minor”; the not cleaved entry was “no [^3 H]-Bk(1-7) was observed in the perfusate”. With `CC(C)C[C@@H](N)[C@H](O)C(=O)N[C@H](C(=O)N[C@H](C(=O)N[C@@H](CC(=O)O)C(=O)O)C(C)C)C(C)C` [amastatin, [(2S, 3R)-3-amino-2-hydroxy-5-methylhexanoyl]-Val-Val-Asp], in series [1] (100 μM along with ramiprilat in the perfusion medium (data not shown)), the “effect on the pattern of metabolites” value was “no significant effect”.

Take `CC[C@H](C)[C@H](N)C(=O)N1CCC[C@H]1C(=O)N[C@H](C(=O)O)[C@@H](C)CC` [diprotin A, Ile-Pro-Ile]: the “form of radioactivity eluted from the lung” value in series [1] (diprotin A present along with ramiprilat (data not shown)) was “most of the radioactivity eluted from the lung in the form of [^3 H]-Bk(2-9)”. In the case of `CC(C)C[C@@H](N)[C@H](O)C(=O)N1CCC[C@H]1C(=O)N1CCC[C@H]1C(=O)N[C@@H](C)C(N)=O` [(2S,3R), N-[(2S,3R)-3-amino-2-hydroxy-5-methylhexanoyl]-L-prolyl-L-prolyl-L-alaninamide], the results for the IC50 in series [2] and in series [3] were 4.5 µM and 0.23 µM, respectively. For the same compound, the “IC50 relative to the IC50 of apstatin” value in series [3] (versus apstatin […]) is “approximately ten-fold”. For the compound Arg-Pro-Pro, the cleaved bond entry in series [5] was “Arg-Pro”.
